Measurements: US8273705B2, “Conversion of apoptotic proteins” (The Burnham Institute, priority 2002, dated 2012)
d = 2'-deoxy (DNA); r = 2'-OH (RNA)

What was measured:
[1] = tested on: peripheral blood lymphocytes (PBLs); assay: Apoptosis of peripheral blood lymphocytes; assay type: cell-based, human; details: oligonucleotide transfected
Method: Isolation and transfection of human peripheral blood lymphocytes (PBLs)—Leukocyte-enriched buffy coats from San Diego Blood Bank were diluted with 2 volumes of PBS, and PBLs were isolated by centrifuge on Ficoll-paque™ Plus (Amersham Pharmacia biotech). The mononuclear cells were cultured in RPMI containing 10% FBS and 20 μM Hepes. Freshly isolated cells (10^7 cells per transfection) were washed once with PBS containing 0.5% BSA and supernatant was completely discarded so that no residual PBS/BSA covers the pellet. The cells were resuspended in 100 μl of the human T Cell Nucleofector™ solution (Amexa biosystems) and very gently mixed with 1-4 μg DNA in 5 μl. The cell suspension was transferred into a cuvette supplied by Amexa biosystems and electroporated using U-14 program of Nucleofector™ device. The cells were removed from the cuvette quickly by adding 500 μl of the pre-warmed RPMI medium containing 10% FBS and 20 μM Hepes and transferred into 12 well plates containing 1.5 ml of pre-warmed culture medium.

H460 lung cancer cells = assay: TR3 induction and apoptosis in H460 lung cancer cells; assay type: cell-based
Method: (§1) In addition to TPA, AHPN and its structural analogs also induce TR3 expression and TR3-dependent apoptosis in an epithelial cancer cell line. […] Lysates were then incubated with anti-Bcl-2 antibody. Immunoblotting of immunoprecipitates was conducted using anti-TR3 and anti-Bcl-2 antibodies.
BH3-only proteins exert their apoptotic effects through either Bax or Bak. The involvement of Bax and Bak in Bcl-2-dependent apoptosis induced by TR3 was therefore examined.
To determine whether Bak, which was highly expressed in H460 cells, played a role in Bcl-2-dependent apoptosis induced by TR3, the effects of Bak siRNA transfection was examined. […] Thus, Bcl-2-dependent apoptosis induced by TR3 depends on multidomain pro-apoptotic Bcl-2-family proteins such as Bak.

TR3/Bcl-2 interaction = assay: Co-IP of TR3 and Bcl-2 in H460 lung cancer cells; assay type: cell-based; details: 10^−6 M for 3 hours
Method: as §1

[2] = tested on: MGC80-3 gastric cancer cells; assay: TR3 mitochondrial targeting in MGC80-3 gastric cancer cells; assay type: cell-based; details: MGC80-3 cells treated with 3-Cl-AHPC
Method: C. Small interfering RNA (siRNA)—To complement these gene transfection experiments, a small interfering (si)RNA approach was used to determine the effect of suppressing endogenous Bcl-2 expression on TR3 mitochondrial targeting. […] After 48 h, lysates were prepared and assayed by immunoblotting using anti-Bcl-2 and anti-β-actin antibodies.

MGC80-3 cells = assay: TR3-dependent apoptosis in MGC80-3 cells with Bcl-2 siRNA; assay type: cell-based; details: control GFP-siRNA-transfected MGC80-3 cells
Method: Bcl-2 siRNAs and antisense oligonucleotides—The target siRNA SMARTPOOLs® for Bcl-2 and Bak and the siRNA oligonucleotide for TR3 (5′-CAG UCC AGC CAU GCU CCU dTdT) (SEQ ID NO: 2) were purchased from Dharmacon Research Inc. Target or control siRNA were transfected at a final concentration of 200 nM into cells at 40% confluency using Oligofectamine reagent (Invitrogen) according to the manufacturer's recommendations. After 48 h, cells were analyzed. Bcl-2 antisense oligonucleotide targeting Bcl-2 and negative control oligonucleotides were obtained from Calbiochem. They (2.5 μM) were transfected into cells at 60% confluency for 36 h before analysis.
The effect of inhibiting endogenous Bcl-2 expression on the TR3-dependent apoptosis in MGC80-3 cells was next analyzed. […] However, 3-Cl-AHPC-induced apoptosis was suppressed by more than half (about 60%) in Bcl-2 siRNA-transfected cells. Similar results were obtained in H460 lung cancer cells. […] Thus, Bcl-2 can manifest a pro-apoptotic phenotype in settings where TR3 is expressed and targets to mitochondria.

[3] = tested on: primary dopaminergic neurons; assay: TR3 localization in primary dopaminergic neurons; assay type: cell-based, rat; details: 100 μM, one hour
Method: To further investigate TR3 targeting of mitochondria, rat primary neurons were treated with the dopaminergic neurotoxin 1-methyl-4-phenyl-1,2,3,6-tetrahydropyridine (MPTP). MPTP induces Parkinson's disease in animals. […] Neurons were identified by staining with neuron marker. TR3 and mitochondria (Hsp60) were visualized using confocal microscopy. […] TR3 was found only in the nucleus of non-treated neurons. Thus, TR3 mitochondrial localization plays a role in mediating the effect of dopaminergic neurotoxin in neurons.

293T cells = assay: DAPI apoptosis assay in 293T cells; assay type: cell-based, human; details: 293T, transfected alone, 36 h, DAPI
Method: Apoptosis assays—For nuclear morphological change analysis, cells were trypsinized, washed with PBS, fixed with 3.7% paraformaldehyde, and stained with DAPI (4,6-diamidino-2-phenylindole) (50 μg/ml) to visualize the nuclei by UV-microscopy. The percentages of apoptotic cells were determined by counting 300 GFP-positive cells, scoring cells having nuclear fragmentation and/or chromatin condensation.
DAPI staining was used to study the apoptotic effect of TR3/Bcl-2 interaction. 293T cells were transfected with GFP-TR3/ΔDBD alone or together with Bcl-2. After 36 h, nuclei were stained by DAPI and nuclear fragmentation and chromatin condensation were identified. Cells were also stained with anti-Bcl-2 antibody, followed by TRITC-conjugated secondary antibody (Sigma). Bcl-2 and GFP-ΔDBD expression and nuclear morphology were visualized by fluorescence microscopy, and the two images were overlaid. […] But, when Bcl-2 was cotransfected, a significant amount of transfected cells underwent apoptosis. For example, approximately 4% of cells transfected with either TR3/ΔDBD or Bcl-2 were apoptotic, compared to 35% of cell transfected with both. […]
To characterize the pro-apoptotic mechanism of Bcl-2 in the setting of TR3-induced apoptosis, various TR3 mutants and Bcl-2 mutants were co-expressed in HEK293T cells. […] Cells displaying nuclear condensation or fragmentation were scored. […]

Bcl-XL = target: T1, Bcl-XL (Homo sapiens, UniProt Q07817); assay: TCTP/Bcl-XL interaction (yeast two-hybrid, immunoprecipitation in HEK293T); assay type: binding
T1 construct: expressed in transfected cells; host or cells: HEK293T
Excerpt: Bcl-XL cDNA was constructed into the pGilda yeast two-hybrid vector. Using pGilda-Bcl-XL as bait, a human testis cDNA library was used in yeast two-hybrid screening to screen for potential Bcl-XL interacting proteins. pGilda-Bcl-XL and a reporter plasmid pSH18-34 were co-transfected into EGY48 yeast cells. The transfectant yeast cells were then transfected in large scale with yeast two-hybrid library cDNA plasmids. Positive clones were identified through selection in Leucine-deficient media. A total of 95 positive colonies were identified. These positive clones were further examined for a second reporter expression by β-gal filter assays. Among these clones, 29 of them tested positive. These clones were further examined by mating assays to confirm the interaction with Bcl-XL. Ten positive clones were isolated and sequenced to reveal their identity. Two of them encode cDNAs identical to human Translationally-Controlled Tumor Protein (TCTP).
TCTP is a calcium-binding protein with no previous identified role in apoptosis regulation. […] Cell lysates were immunoprecipitated with polyclonal anti-GFP antibody. The immunoprecipitates or the lysates were blotted with anti-HA or anti-GFP antibodies, respectively.

cos-7 cells [4] = assay: TCTP-induced apoptosis (DAPI) in cos-7 cells; assay type: cell-based
Method: Cells were fixed and stained with DAPI 48 hours after transfection (n≧200 total cells evaluated) and the percentage of apoptotic cells was calculated (mean±SD, n=3) (FIG. 7).

cos-7 cells [5] = assay: TCTP/Bcl-XL co-localization in cos-7 cells; assay type: cell-based; details: cos-7, GFP-TCTP and RFP-Bcl-XL
Excerpt: Images were photographed with a confocal microscope.

T1 sequence (Q07817 whole entry): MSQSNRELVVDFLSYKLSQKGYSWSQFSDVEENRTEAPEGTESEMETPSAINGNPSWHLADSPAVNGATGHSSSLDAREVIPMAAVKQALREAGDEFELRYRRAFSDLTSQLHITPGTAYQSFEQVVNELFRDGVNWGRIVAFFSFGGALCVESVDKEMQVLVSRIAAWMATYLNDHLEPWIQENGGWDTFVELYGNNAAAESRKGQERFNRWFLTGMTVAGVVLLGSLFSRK

## 5′-CAG UCC AGC CAU GCU CCU dTdT (CAGUCCAGCCAUGCUCCUTT; siRNA; sugars from the 5' end r18 d2, backbone not given here) [TR3 siRNA, reference compound]
[1]
  TPA/ionomycin-induced apoptosis of PBLs: partially inhibited

## O=C(O)/C=C/c1ccc(-c2ccc(O)c(C34CC5CC(CC(C5)C3)C4)c2)c(Cl)c1 [3-Cl-AHPC]
H460 lung cancer cells
  apoptosis: extensive apoptosis
H460 lung cancer cells; 10^−6 M for 3 hours
  TR3 expression, mitochondrial targeting and apoptosis: potently induces TR3 expression, mitochondrial targeting and apoptosis
TR3/Bcl-2 interaction
  co-immunoprecipitation of TR3 with anti-Bcl-2 antibody: demonstrated co-immunoprecipitation of TR3
[2]
  endogenous TR3 localization: targeted mitochondria
MGC80-3 cells
  apoptosis: resulted in apoptosis

## CN1CC=C(c2ccccc2)CC1 [MPTP, 1-methyl-4-phenyl-1,2,3,6-tetrahydropyridine]
[3]
  endogenous TR3 localization: found exclusively in the cytoplasm and colocalized with mitochondria

## Bcl-2: Bcl-2 expression vector transfected into cells
293T cells
  apoptotic cells: approximately 4%

## TCTP: human Translationally-Controlled Tumor Protein
Bcl-XL
  interaction with Bcl-XL: interacts with Bcl-XL
cos-7 cells [4]; expressed together with Bcl-XL versus without Bcl-XL, 48 hours
  apoptosis: More apoptosis
cos-7 cells [4]; over-expressed in cells
  apoptosis: induces apoptosis
cos-7 cells [5]
  subcellular localization with Bcl-XL: recruits TCTP from cytosolic location to the mitochondria
